Tests used:
[1] = test system: blackgrass; assay: Test B postemergence herbicide test; assay type: in vivo, Alopecurus myosuroides; details: for Plant response rating, Blackgrass: visual rating after 13 to 15 days
Outline: (§1)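 Plants grow to 1- to 4-leaf stage (2–18 cm) for postemergence spraying, or to 2-leaf stage for the paddy test. Formulated compound is applied. Greenhouse holding lasts 13–15 days. Response is scored visually relative to controls, 0 no effect to 100 complete control; a dash means no result.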

[2] = test system: barnyardgrass; assay: Test B flooded paddy test; assay type: in vivo, Echinochloa crus-galli; details: 1000 g ai/ha, scale 0 to 100 (0 no effect, 100 complete control)
Outline: as §1

[3] = test system: velvetleaf; assay: Test B pre-/postemergence herbicide test; assay type: in vivo, Abutilon theophrasti
Outline: (§2)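 Response was scored visually 13 to 15 days after treatment against untreated greenhouse controls, 0 meaning no effect and 100 complete control. Formulations (solvent mixture plus surfactant) went onto soil after planting, onto foliage of 1- to 4-leaf plants, and onto 2-leaf plants in a flooded paddy set including rice and barnyardgrass.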

[4] = test system: small flower umbrella sedge; assay: Test B flooded paddy test; assay type: in vivo, Cyperus difformis; details: 1000 g ai/ha, scale 0 to 100 (0 no effect, 100 complete control)
Outline: as §1

[5] = test system: wild oat; assay: Test B postemergence herbicide test; assay type: in vivo, Avena fatua; details: for Plant response rating, Oat, Wild: visual rating after 13 to 15 days
Outline: (§3)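 Treated at 2-leaf (paddy) or 1–4-leaf, 2–18 cm (postemergence); greenhouse 13–15 d; visual score vs control, 0 none to 100 complete control; dash = not tested.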

[6] = test system: Surinam grass; assay: Test B pre-/postemergence herbicide test; assay type: in vivo, Urochloa decumbens
Outline: as §2

[7] = test system: wheat; assay: Test B postemergence herbicide test; assay type: in vivo, Triticum aestivum; parameters: key to Wheat plant response rating: 0 = no effect, 100 = complete control; details: for Plant response rating, Wheat: visual rating after 13 to 15 days
Outline: as §3

[8] = test system: morningglory; assay: Test B pre-/postemergence herbicide test; assay type: in vivo, Ipomoea coccinea
Outline: (§4)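 Species tested were Echinochloa crus-galli, Ipomoea coccinea, Xanthium strumarium and Oryza sativa, treated both before emergence and at the 1- to 4-leaf stage; rice and barnyardgrass were also tested under flooding at 2 leaves. Greenhouse incubation lasted 13–15 days before visual 0–100 scoring.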

[9] = test system: rice; assay: Test B flooded paddy test; assay type: in vivo, Oryza sativa; details: 1000 g ai/ha, scale 0 to 100 (0 no effect, 100 complete control)
Outline: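 Postemergence plants were sprayed with formulated test chemicals at 2 to 18 cm height (1- to 4-leaf stage); paddy species were grown to the 2-leaf stage. After 13 to 15 days in a greenhouse, injury was rated visually against untreated controls on a 0–100 scale (0 = no effect, 100 = complete control).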

[10] = test system: barnyardgrass; assay: Test B pre-/postemergence herbicide test; assay type: in vivo, Echinochloa crus-galli
Outline: as §4

[11] = test system: corn; assay: Test B pre-/postemergence herbicide test; assay type: in vivo, Zea mays
Outline: as §2

[12] = test system: large crabgrass; assay: Test B pre-/postemergence herbicide test; assay type: in vivo, Digitaria sanguinalis
Outline: as §2

[13] = test system: ducksalad; assay: Test B flooded paddy test; assay type: in vivo, Heteranthera limosa; details: 1000 g ai/ha, scale 0 to 100 (0 no effect, 100 complete control)
Outline: as §1

[14] = test system: giant foxtail; assay: Test B pre-/postemergence herbicide test; assay type: in vivo, Setaria faberi
Outline: as §2

[15] = test system: pigweed; assay: Test B pre-/postemergence herbicide test; assay type: in vivo, Amaranthus retroflexus
Outline: as §2

[16] = 125 g ai/ha, visual rating, scale 0 (no effect) to 100 (complete control), postemergence
[17] = postemergence, 500 g ai/ha, scale 0 to 100, 0 is no effect, 100 is complete control
[18] = 500 g ai/ha, visual rating, 0 = no effect, 100 = complete control, preemergence
[19] = 125 g ai/ha, 0 = no effect, 100 = complete control, preemergence
[20] = Postemergence, 500 g ai/ha, scale 0 (no effect) to 100 (complete control)
[21] = postemergence, 125 g ai/ha, scale 0 to 100
[22] = 125 g ai/ha, 0 is no effect, 100 is complete control, preemergence
[23] = postemergence, 125 g ai/ha, visual rating, scale 0 (no effect) to 100 (complete control)
[24] = Postemergence, 500 g ai/ha, visual rating after 13 to 15 days, scale 0 (no effect) to 100 (complete control)
[25] = preemergence, 125 g ai/ha, 0 to 100 scale, 0 is no effect, 100 is complete control
[26] = Preemergence, 500 g ai/ha, scale 0 to 100
[27] = 500 g ai/ha, visual rating 0-100, 0 no effect, 100 complete control, preemergence

## CCn1nc(C(C)(C)C)cc1C(=O)Nc1cncc(C(=O)N(C)C)n1 [Compound 287]
[1]; [16]
  Blackgrass plant response rating: 10
[1]; [17]
  Blackgrass plant response rating: 30
[2]
  Barnyardgrass plant response rating: 80
[3]; [16]
  Velvetleaf plant response rating: 0
[3]; [18]
  Plant response rating, Velvetleaf: 100
[3]; [17]
  Velvetleaf plant response rating: 60
[4]
  Sedge, Umbrella plant response rating: 80
[5]; [16]
  Oat, Wild plant response rating: 20
[5]; [17]
  Oat, Wild plant response rating: 40
[6]; [19]
  Surinam Grass plant response rating (0 to 100 scale): 50
[6]; [16]
  Surinam Grass plant response rating: 0
[6]; [18]
  Plant response rating, Surinam Grass: 80
[6]; [17]
  Surinam Grass plant response rating: 10
[7]; [16]
  Wheat plant response rating: 10
[7]; [17]
  Wheat plant response rating: 30
[8]; [19]
  Morningglory plant response rating (0 to 100 scale): 0
[8]; [16]
  Morningglory plant response rating: 0
[8]; [18]
  Plant response rating, Morningglory: 10
[8]; [17]
  Morningglory plant response rating: 20
[9]
  Rice plant response rating: 70
[10]; [19]
  Barnyardgrass plant response rating (0 to 100 scale): 80
[10]; [16]
  Barnyardgrass plant response rating: 0
[10]; [18]
  Plant response rating, Barnyardgrass: 100
[10]; [17]
  Barnyardgrass plant response rating: 20
[11]; [19]
  Corn plant response rating (0 to 100 scale): 0
[11]; [16]
  Corn plant response rating: 0
[11]; [18]
  Plant response rating, Corn: 30
[11]; [17]
  Corn plant response rating: 70
[12]; [19]
  Crabgrass, Large plant response rating (0 to 100 scale): 70
[12]; [16]
  Crabgrass, Large plant response rating: 0
[12]; [18]
  Plant response rating, Crabgrass, Large: 100
[12]; [17]
  Crabgrass, Large plant response rating: 0
[13]
  Ducksalad plant response rating: 80
[14]; [19]
  Foxtail, Giant plant response rating (0 to 100 scale): 10
[14]; [16]
  Foxtail, Giant plant response rating: 20
[14]; [18]
  Plant response rating, Foxtail, Giant: 90
[14]; [17]
  Foxtail, Giant plant response rating: 80
[15]; [19]
  Pigweed plant response rating (0 to 100 scale): 90
[15]; [16]
  Pigweed plant response rating: 20
[15]; [18]
  Plant response rating, Pigweed: 100
[15]; [17]
  Pigweed plant response rating: 30

## CCN(CC)C(=O)c1cccc(NC(=O)c2nn(C(C)(C)C)nc2C)c1 [Compound 418]
[1]; [20]
  Blackgrass plant response rating: 30
[1]; [21]
  Blackgrass plant response rating: 10
[2]
  Barnyardgrass plant response rating: 80
[3]; [22]
  Plant response rating (0 to 100 scale), Velvetleaf: 50
[3]; [20]
  Velvetleaf plant response rating: 40
[3]; [21]
  Velvetleaf plant response rating: 20
[4]
  Sedge, Umbrella plant response rating: 80
[5]; [20]
  Oat, Wild plant response rating: 10
[5]; [21]
  Oat, Wild plant response rating: 0
[6]; [22]
  Plant response rating (0 to 100 scale), Surinam Grass: 90
[6]; [20]
  Surinam Grass plant response rating: 20
[6]; [21]
  Surinam Grass plant response rating: 20
[7]; 500 g ai/ha, scale 0 to 100, 0 no effect, 100 complete control, preemergence
  Wheat plant response rating: 100
[7]; [20]
  Wheat plant response rating: 20
[7]; [21]
  Wheat plant response rating: 10
[8]; [22]
  Plant response rating (0 to 100 scale), Morningglory: 40
[8]; [20]
  Morningglory plant response rating: 80
[8]; [21]
  Morningglory plant response rating: 80
[9]
  Rice plant response rating: 60
[10]; [22]
  Plant response rating (0 to 100 scale), Barnyardgrass: 70
[10]; Postemergence, 125 g ai/ha, scale 0 (no effect) to 100 (complete control)
  Barnyardgrass plant response rating: 20
[10]; [20]
  Barnyardgrass plant response rating: 20
[11]; [22]
  Plant response rating (0 to 100 scale), Corn: 10
[11]; [20]
  Corn plant response rating: 20
[11]; [21]
  Corn plant response rating: 20
[12]; [22]
  Plant response rating (0 to 100 scale), Crabgrass, Large: 100
[12]; [20]
  Crabgrass, Large plant response rating: 30
[12]; [21]
  Crabgrass, Large plant response rating: 20
[13]
  Ducksalad plant response rating: 70
[14]; [22]
  Plant response rating (0 to 100 scale), Foxtail, Giant: 80
[14]; [20]
  Foxtail, Giant plant response rating: 40
[14]; [21]
  Foxtail, Giant plant response rating: 20
[15]; [22]
  Plant response rating (0 to 100 scale), Pigweed: 100
[15]; [20]
  Pigweed plant response rating: 80
[15]; [21]
  Pigweed plant response rating: 70

## C#CCOC(=O)c1cccc(NC(=O)c2cc(C(C)(C)C)nn2CC)c1 [Compound 84]
[1]; [20]
  Plant response rating, Blackgrass: 10
[1]; [23]
  Blackgrass plant response rating: 0
[2]; visual rating, 13 to 15 days
  Barnyardgrass plant response rating: 10
[3]; [24]
  Plant response rating, Velvetleaf: 100
[3]; [23]
  Velvetleaf plant response rating: 60
[3]; [25]
  Plant response rating, Velvetleaf: 0
[4]; visual rating, 13 to 15 days
  Sedge, Umbrella plant response rating: 70
[5]; [20]
  Plant response rating, Oat, Wild: 20
[5]; [23]
  Oat, Wild plant response rating: 20
[6]; [24]
  Plant response rating, Surinam Grass: 60
[6]; [23]
  Surinam Grass plant response rating: 50
[6]; [25]
  Plant response rating, Surinam Grass: 0
[7]; [20]
  Plant response rating, Wheat: 30
[7]; [23]
  Wheat plant response rating: 20
[8]; [24]
  Plant response rating, Morningglory: 60
[8]; [23]
  Morningglory plant response rating: 30
[8]; [25]
  Plant response rating, Morningglory: 0
[9]; visual rating, 13 to 15 days
  Rice plant response rating: 0
[10]; [24]
  Plant response rating, Barnyardgrass: 40
[10]; [26]
  Barnyardgrass plant response rating: 0
[10]; [23]
  Barnyardgrass plant response rating: 20
[10]; [25]
  Plant response rating, Barnyardgrass: 0
[11]; [24]
  Plant response rating, Corn: 20
[11]; [26]
  Corn plant response rating: 0
[11]; [23]
  Corn plant response rating: 10
[11]; [25]
  Plant response rating, Corn: 0
[12]; [24]
  Plant response rating, Crabgrass, Large: 50
[12]; [26]
  Crabgrass, Large plant response rating: 0
[12]; [23]
  Crabgrass, Large plant response rating: 20
[12]; [25]
  Plant response rating, Crabgrass, Large: 0
[13]; visual rating, 13 to 15 days
  Ducksalad plant response rating: 20
[14]; [24]
  Plant response rating, Foxtail, Giant: 10
[14]; [26]
  Foxtail, Giant plant response rating: 0
[14]; [23]
  Foxtail, Giant plant response rating: 10
[14]; [25]
  Plant response rating, Foxtail, Giant: 0
[15]; [24]
  Plant response rating, Pigweed: 100
[15]; [23]
  Pigweed plant response rating: 80
[15]; [25]
  Plant response rating, Pigweed: 0

## CCn1nc(C(C)(C)C)cc1C(=O)Nc1cccc(C(C)=NO)c1 [Compound 108]
[1]; [20]
  Plant response rating, Blackgrass: 20
[1]; [23]
  Blackgrass plant response rating: 0
[2]; visual rating, 13 to 15 days
  Barnyardgrass plant response rating: 80
[3]; [27]
  Plant response rating, Velvetleaf: 100
[3]; [24]
  Plant response rating, Velvetleaf: 70
[3]; [23]
  Velvetleaf plant response rating: 50
[3]; [25]
  Plant response rating, Velvetleaf: 80
[4]; visual rating, 13 to 15 days
  Sedge, Umbrella plant response rating: 90
[5]; [20]
  Plant response rating, Oat, Wild: 50
[5]; [23]
  Oat, Wild plant response rating: 20
[6]; [27]
  Plant response rating, Surinam Grass: 80
[6]; [24]
  Plant response rating, Surinam Grass: 10
[6]; [23]
  Surinam Grass plant response rating: 10
[6]; [25]
  Plant response rating, Surinam Grass: 50
[7]; [20]
  Plant response rating, Wheat: 20
[7]; [23]
  Wheat plant response rating: 10
[8]; [27]
  Plant response rating, Morningglory: 70
[8]; [24]
  Plant response rating, Morningglory: 100
[8]; [23]
  Morningglory plant response rating: 30
[8]; [25]
  Plant response rating, Morningglory: 50
[9]; visual rating, 13 to 15 days
  Rice plant response rating: 70
[10]; [27]
  Plant response rating, Barnyardgrass: 90
[10]; [24]
  Plant response rating, Barnyardgrass: 70
[10]; [23]
  Barnyardgrass plant response rating: 10
[10]; [25]
  Plant response rating, Barnyardgrass: 80
[11]; [27]
  Plant response rating, Corn: 30
[11]; [24]
  Plant response rating, Corn: 20
[11]; [23]
  Corn plant response rating: 10
[11]; [25]
  Plant response rating, Corn: 10
[12]; [27]
  Plant response rating, Crabgrass, Large: 100
[12]; [24]
  Plant response rating, Crabgrass, Large: 70
[12]; [23]
  Crabgrass, Large plant response rating: 20
[12]; [25]
  Plant response rating, Crabgrass, Large: 100
[13]; visual rating, 13 to 15 days
  Ducksalad plant response rating: 90
[14]; [27]
  Plant response rating, Foxtail, Giant: 100
[14]; [24]
  Plant response rating, Foxtail, Giant: 30
[14]; [23]
  Foxtail, Giant plant response rating: 10
[14]; [25]
  Plant response rating, Foxtail, Giant: 90
[15]; [27]
  Plant response rating, Pigweed: 100
[15]; [24]
  Plant response rating, Pigweed: 100
[15]; [23]
  Pigweed plant response rating: 80
[15]; [25]
  Plant response rating, Pigweed: 90
